Laboratory results reported in ChEMBL document CHEMBL3804765, “One-pot synthesis and sigma receptor binding studies of novel spirocyclic-2,6-diketopiperazine derivatives” (Bioorg Med Chem Lett, 2016).

Columns and labels:
[1] = Displacement of [3H]-DTG from Sigma2 receptor in Sprague-Dawley rat liver membrane after 150 mins by liquid scintillation counting analysis in presence of sigma1 blocker (+)-pentazocine; format: cell membranes
[2] = target: Sigma non-opioid intracellular receptor 1 (Cavia porcellus, UniProt Q60492); test: Displacement of [3H](+)-pentazocine from Sigma1 receptor in Dunkin Hartley guinea pig brain membrane after 120 mins by liquid scintillation counting analysis
[3] = Displacement of [3H]-DTG from Sigma2 receptor in Sprague-Dawley rat liver membrane after 150 mins by liquid scintillation counting analysis in presence of sigma1 blocker AC915; format: cell membranes
[4] = Displacement of [3H]-DTG from Sigma2 receptor in rat brain by liquid scintillation counting analysis in presence of sigma1 blocker (+)-pentazocine; format: tissue-based

Chain of Sigma non-opioid intracellular receptor 1 (Q60492 whole entry): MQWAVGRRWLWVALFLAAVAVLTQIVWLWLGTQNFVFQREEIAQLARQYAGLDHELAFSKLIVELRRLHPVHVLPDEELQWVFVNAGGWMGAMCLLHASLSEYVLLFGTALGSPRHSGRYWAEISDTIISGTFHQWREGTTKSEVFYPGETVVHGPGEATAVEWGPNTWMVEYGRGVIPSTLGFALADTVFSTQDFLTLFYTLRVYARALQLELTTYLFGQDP

SMILES: Cc1ccc(C(=O)N2CC(=O)N(C3CCCCC3)C(=O)C23CCCC3)cc1
- Ki [1]: 0.134 µM
- Ki [2]: 0.189 µM

SMILES: CC(C)=CCN1CC[C@]2(C)c3cc(O)ccc3C[C@H]1[C@H]2C [(+)-PENTAZOCINE]
- Ki [3]: 1.82 µM

SMILES: COc1ccc(C(=O)N2CC(=O)N(C3CCCCC3)C(=O)C23CCCC3)cc1
- Ki [1]: 0.098 µM
- Ki [2]: 0.429 µM

SMILES: COc1ccc(C(=O)N2CC(=O)N(C3CCCCC3)C(=O)C23CCC(C(C)(C)C)CC3)cc1 (stereo unspecified)
- Ki [1]: > 10 µM
- Ki [2]: 9.36 µM

SMILES: COc1ccc(C(=O)N2CC(=O)N(C3CCCCC3)C(=O)C23CCCCC3)cc1
- Ki [1]: 5.38 µM
- Ki [2]: 1.37 µM

SMILES: COc1ccc(C(=O)N2CC(=O)N(C3CCCCC3)C(=O)C23CCCCC3)c(OC)c1
- Ki [1]: 3.17 µM
- Ki [2]: 0.968 µM

SMILES: O=C(CCCN1CCC(O)(c2ccc(Cl)cc2)CC1)c1ccc(F)cc1 [HALOPERIDOL]
- Ki [1]: 0.0545 µM

SMILES: O=C1CN(C(=O)c2ccccc2)C2(CCN(Cc3ccccc3)CC2)C(=O)N1C1CCCCC1
- Ki [1]: 0.248 µM
- Ki [2]: 0.0072 µM

SMILES: c1ccc(CN2CCC3(CC2)N=Nc2ccccc2N3)cc1
- Ki [4]: 4.22 µM

SMILES: COc1ccc(C(=O)N2CC(=O)N(C3CCCCC3)C(=O)C23CCN(Cc2ccccc2)CC3)cc1
- Ki [1]: 0.563 µM
- Ki [2]: 0.0059 µM

SMILES: O=C1CN(C(=O)c2ccccc2)C2(CCCC2)C(=O)N1C1CCCCC1
- Ki [1]: 0.118 µM
- Ki [2]: 0.0798 µM

SMILES: Cc1ccccc1NC(=N)Nc1ccccc1C [DITOLYLGUANIDINE]
- Ki [1]: 0.0591 µM

SMILES: Cc1ccc(C(=O)N2CC(=O)N(C3CCCCC3)C(=O)C23CCN(Cc2ccccc2)CC3)cc1
- Ki [1]: 0.134 µM
- Ki [2]: 0.0111 µM

SMILES: Cc1ccc(C(=O)N2CC(=O)N(C3CCCCC3)C(=O)C23CCCCC3)cc1
- Ki [1]: 2.19 µM
- Ki [2]: 0.399 µM

SMILES: CC(C)(C)C1CCC2(CC1)C(=O)N(C1CCCCC1)C(=O)CN2C(=O)c1ccccc1 (stereo unspecified)
- Ki [1]: > 10 µM
- Ki [2]: 7.9 µM
